Test results taken from ChEMBL document CHEMBL4602613, “Early identification of promiscuous attributes of aldose reductase inhibitors using a DMSO-perturbation assay” (Bioorg Med Chem Lett, 2020).

What was measured:
[1] = target: T1, Aldo-keto reductase family 1 member B1 (Homo sapiens, UniProt P15121); assay: Inhibition of human recombinant AKR1B1 assessed as D,L-glyceraldehyde reduction incubated in sodium phosphate buffer at pH 6.2 in presence of NADPH
[2] = target: T1, Aldo-keto reductase family 1 member B1; assay: Inhibition of human recombinant AKR1B1 assessed as D,L-glyceraldehyde reduction at 100 uM incubated in sodium phosphate buffer at pH 6.2 in presence of NADPH relative to control
[3] = target: T1, Aldo-keto reductase family 1 member B1; assay: Aggregation-based inhibition of human recombinant AKR1B1 assessed as D,L-glyceraldehyde reduction incubated in sodium phosphate buffer at pH 6.2 in presence of NADPH and 0.05% Triton X-100 by detergent-addition assay
[4] = target: T2, Aldo-keto reductase family 1 member B10 (Homo sapiens, UniProt O60218); assay: Inhibition of AKR1B10 (unknown origin) pretreated with 0.25M DMSO followed by compound treatment by DMSO-perturbation assay
T2 sequence (O60218 whole entry): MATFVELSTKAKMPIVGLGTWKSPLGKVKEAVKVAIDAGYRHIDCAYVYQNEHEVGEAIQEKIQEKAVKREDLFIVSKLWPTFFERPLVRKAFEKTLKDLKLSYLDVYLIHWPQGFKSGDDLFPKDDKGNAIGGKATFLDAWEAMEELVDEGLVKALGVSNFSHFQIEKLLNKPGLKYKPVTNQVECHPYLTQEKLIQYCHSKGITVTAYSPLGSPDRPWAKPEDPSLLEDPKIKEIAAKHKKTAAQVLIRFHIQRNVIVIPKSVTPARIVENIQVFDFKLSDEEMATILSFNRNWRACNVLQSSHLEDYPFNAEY

[5] = target: T2, Aldo-keto reductase family 1 member B10; assay: Inhibition of AKR1B10 (unknown origin) pretreated with 0.42M DMSO followed by compound treatment by DMSO-perturbation assay
[6] = target: T1, Aldo-keto reductase family 1 member B1; assay: Inhibition of human recombinant AKR1B1 assessed as D,L-glyceraldehyde reduction pretreated with 0.3M DMSO followed by compound addition by DMSO-perturbation assay
[7] = target: T1, Aldo-keto reductase family 1 member B1; assay: Inhibition of human recombinant AKR1B1 assessed as D,L-glyceraldehyde reduction pretreated with 0.7M DMSO followed by compound addition by DMSO-perturbation assay
[8] = target: T1, Aldo-keto reductase family 1 member B1; assay: Ratio of IC50 for human recombinant AKR1B1 in presence of 0.7M DMSO to IC50 for human recombinant AKR1B1 in presence of 0.3M DMSO by DMSO-perturbation assay
[9] = target: T1, Aldo-keto reductase family 1 member B1; assay: Aggregation-based inhibition of human recombinant AKR1B1 assessed as D,L-glyceraldehyde reduction at 300 uM incubated in sodium phosphate buffer at pH 6.2 in presence of NADPH and 0.05% Triton X-100 by detergent-addition assay

| Structure (SMILES) | inhibition [2] [%] | IC50 ([1]; read-out: IC50) [µM] | IC50 [3] [µM] | further results |
| --- | --- | --- | --- | --- |
| CC(C)=C1C[C@@H]2[C@@H](CCC3(C)NC(=O)NC3=O)[C@]2(C)CC1=O (stereo not given in full) | 30 | 291 | 453 |  |
| CC(/C=C1\SC(=S)N(CC(=O)O)C1=O)=C\c1ccccc1 |  |  |  | IC50 [4]: 0.0352 µM; IC50 [5]: 0.0393 µM |
| O=C1NC(=O)C(c2ccccc2)(c2ccc(O)cc2)N1 (stereo not given) | 71 | 40.6 | 47.9 | IC50 [6]: 40.6 µM; IC50 [7]: 64.2 µM |
| CCCC1NC(=O)NC1=O (stereo not given) | 19 |  |  |  |
| CC(=O)CC[C@@H]1[C@H]2CC(=C(C)C)C(=O)C[C@@]12C | 3 |  |  |  |
| COc1ccc(C(C)=O)c(O)c1 | 2 |  |  |  |
| COc1ccc2c(c1)OC(=O)NC2(C)C(N)=O (stereo not given) | 12 |  |  |  |
| O=C1NC(=O)C2(CCCc3ccccc32)N1 (stereo not given) | 56 | 80.1 | 114 |  |

Now from value to compound, other results behind:

| inhibition [2] [%] | IC50 ([1]; read-out: IC50) [µM] | IC50 [3] [µM] | Structure (SMILES) | further results |
| --- | --- | --- | --- | --- |
| 4 |  |  | CCCCC[C@H](O)CC(=O)CCc1ccc(O)c(OC)c1 [GINGEROL] | IC50 [1]: Not Active |
| 39 | 160 | 319 | CC1(CCc2ccccc2)NC(=O)NC1=O (stereo not given) |  |
| 56 | 65.6 | 71.9 | Cn1cnc2c1c(=O)n(CCCCC1(C)NC(=O)NC1=O)c(=O)n2C (stereo not given) | Ratio IC50 [8]: 2.7; IC50 [6]: 65.6 µM; IC50 [7]: 178 µM |
| 34 |  |  | O=C1NC(=O)C(c2ccccc2)N1 (stereo not given) |  |
| 31 | 295 | 433 | COc1ccc(C2(C)NC(=O)NC2=O)c(O)c1 (stereo not given) |  |
| 45 | 126 |  | CCCCCCCCC[C@H](O)CC(=O)CCc1ccc(O)c(OC)c1 | inhibition [9]: < 50% |
